From ChEMBL document CHEMBL5050844 (2019)

Columns and labels:
Assay type in all cases: functional, T cell line
[1] = Induction of anti-CD3/CD28 antibodies-stimulated human T cell activation at 4 uM assessed fold increase in IL-2 secretion measured by ELISA assay
[2] = Induction of anti-CD3/CD28 antibodies-stimulated human T cell activation at 1 uM assessed fold increase in IL-2 secretion measured by ELISA assay
[3] = Induction of anti-CD3/CD28 antibodies-stimulated human T cell activation at 0.3 uM assessed fold increase in IL-2 secretion measured by ELISA assay
[4] = Induction of anti-CD3 antibodies-stimulated human T cell activation at 8 uM assessed fold increase in IL-2 secretion measured by ELISA assay; also: reference of the scale not given here
[5] = Induction of anti-CD3 antibodies-stimulated human T cell activation at 1 uM assessed fold increase in IL-2 secretion measured by ELISA assay; also: reference of the scale not given here
[6] = Induction of anti-CD3/CD28 antibodies-stimulated human T cell activation at 4 uM assessed fold increase in CD25 expression measured by ELISA assay
[7] = Induction of anti-CD3/CD28 antibodies-stimulated human T cell activation at 1 uM assessed fold increase in CD25 expression measured by ELISA assay
[8] = Induction of anti-CD3/CD28 antibodies-stimulated human T cell activation at 0.3 uM assessed fold increase in CD25 expression measured by ELISA assay
[9] = Induction of anti-CD3 antibodies-stimulated human T cell activation at 8 uM assessed fold increase in CD25 expression measured by ELISA assay; also: reference of the scale not given here
[10] = Induction of anti-CD3 antibodies-stimulated human T cell activation at 1 uM assessed fold increase in CD25 expression measured by ELISA assay; also: reference of the scale not given here

Compound | fold change (FC) [1] | fold change (FC) [2] | fold change (FC) [3] | fold change (FC) [4] | fold change (FC) [5] | fold change (FC) [6] | fold change (FC) [7] | fold change (FC) [8] | fold change (FC) [9] | fold change (FC) [10] | fold change (FC) ([1]; 4 µM) | fold change (FC) ([2]; 1 µM) | fold change (FC) ([3]; 0.3 µM) | fold change (FC) ([5]; 1 µM) | fold change (FC) ([9]; 8 µM)
Cn1cnnc1[C@@H]1C[C@@H]1c1cccc(N2Cc3c(cc(C#N)cc3C(F)(F)F)C2=O)c1 | 2.51 | 1.01 | 1.01 | 0.101 | <=0.05 | 1.01 | 1.01 | 1.01 | 0.801 | 0.601 | – | – | – | – | –
Cc1conc1C[C@@H](C)c1cccc(NC(=O)c2ccnc(C(F)(F)F)n2)c1 | 2.51 | 1.01 | 1.01 | 0.101 | 0.051 | 1.01 | 1.01 | 1.01 | >=1.001 | 0.801 | – | – | – | – | –
COc1cccc(C(=O)Nc2cccc([C@H](C)Sc3nncn3C)c2)n1 | 2.51 | 1.01 | 1.01 | 0.151 | 0.101 | 1.31 | <=1 | <=1 | 0.601 | <=0.6 | – | – | – | – | –
Cc1cc(C(=O)Nc2cccc([C@H](C)Cc3nncs3)c2)nc(C2CC2)n1 | 5 | 2.51 | 1.01 | >=0.201 | 0.101 | 1.01 | 1.01 | 1.01 | 0.801 | 0.601 | – | – | – | – | –
Cn1cnnc1C(F)(F)C(C)(F)c1cccc(N2Cc3c(cccc3C(F)(F)F)C2=O)c1 (racemic) | 1.01 | <=1 | <=1 | >=0.201 | >=0.201 | 1.01 | 1.01 | 1.01 | 0.601 | 0.601 | – | – | – | – | –
C[C@H](Sc1nncn1C)c1ccnc(NC(=O)c2cc(C3CC3)cc(C(F)(F)F)n2)c1 | 1.01 | 1.01 | 1.01 | <=0.05 | <=0.05 | 1.01 | <=1 | <=1 | 0.801 | 0.601 | – | – | – | – | –
Cn1cnnc1C(F)[C@](C)(F)c1cccc(N2Cc3c(cccc3C(F)(F)F)C2=O)c1 (single isomer, unassigned) | <=1 | <=1 | <=1 | 0.051 | <=0.05 | 1.01 | <=1 | <=1 | 0.601 | <=0.6 | – | – | – | – | –
Cc1ccc(C(=O)Nc2cccc(C(C)Cc3nccn3C)c2)nc1C1CC1 (stereo in doubt; 214) | – | – | – | 0.051 | – | 1.01 | <=1 | <=1 | – | <=0.6 | >=7.5 | >=7.5 | >=7.5 | 0.051 | <=0.6
C[C@H](Sc1nncn1C)c1cccc(NC(=O)c2ccnc(C(F)(F)F)n2)c1 | 1.01 | 1.01 | 1.01 | 0.051 | <=0.05 | 1.01 | 1.01 | 1.01 | 0.801 | 0.601 | – | – | – | – | –
C[C@@H](c1cccc(N2Cc3c(cccc3C(F)(F)F)C2=O)c1)[C@H](F)c1nncn1C (racemic) | 2.51 | 1.01 | 1.01 | 0.151 | 0.051 | 1.01 | 1.01 | 1.01 | >=1.001 | 0.601 | – | – | – | – | –
C[C@H](Cc1nncn1C)c1cc(NC2COC2)cc(N2Cc3c(cccc3C(F)(F)F)C2=O)c1 | 1.01 | 1.01 | <=1 | 0.051 | 0.051 | 1.01 | 1.01 | 1.01 | 0.801 | 0.601 | – | – | – | – | –
C[C@H](Sc1nncn1C)c1cccc(NC(=O)c2cc3cc(OCc4ccn[nH]4)ccc3cn2)c1 | 2.51 | 1.01 | 1.01 | 0.101 | 0.051 | 1.01 | <=1 | <=1 | <=0.6 | <=0.6 | – | – | – | – | –
C[C@H](Sc1nnc[nH]1)c1cccc(NC(=O)c2cc3ccccc3cn2)c1 | 1.01 | 1.01 | 1.01 | 0.051 | 0.051 | <=1 | <=1 | <=1 | <=0.6 | <=0.6 | – | – | – | – | –
CN1CCN(c2cc3c(c(C(F)(F)F)c2)CN(c2cccc([C@@](C)(F)C(F)(F)c4nncn4C)c2)C3=O)CC1 | 2.51 | 1.01 | 1.01 | 0.151 | 0.051 | 1.01 | 1.01 | 1.01 | >=1.001 | 0.601 | – | – | – | – | –
Cc1ccc(C(=O)Nc2cccc(C(C)C(F)(F)c3nncn3C)c2)nc1C1CC1 (stereo not given) | 2.51 | 1.01 | 1.01 | 0.101 | 0.051 | 1.01 | <=1 | <=1 | >=1.001 | 0.801 | – | – | – | – | –
C[C@H](Sc1nncn1C)c1cccc(NC(=O)c2cc(Cl)cc(C(F)(F)F)n2)c1 | 1.01 | 1.01 | 1.01 | 0.051 | <=0.05 | 1.01 | 1.01 | 1.01 | 0.801 | 0.601 | – | – | – | – | –
Cc1ccc(C(=O)Nc2cccc([C@H](C)Sc3nncn3C)c2)nc1C(F)(F)F | 1.01 | <=1 | <=1 | <=0.05 | <=0.05 | 1.01 | 1.01 | <=1 | >=1.001 | 0.601 | – | – | – | – | –
C[C@H](Cc1nncn1C)c1cccc(NC(=O)c2cc(C(=O)N3C[C@@H](O)C[C@H]3C)ccn2)c1 | <=1 | <=1 | <=1 | 0.101 | 0.101 | 1.51 | 1.01 | 1.01 | <=0.6 | <=0.6 | – | – | – | – | –
C[C@H](Cc1nncn1C)c1cccc(NC(=O)c2cc(C(=O)N3C[C@@H](O)[C@H](F)C3)ccn2)c1 | 2.51 | 1.01 | <=1 | >=0.201 | 0.151 | 1.31 | 1.01 | <=1 | 0.801 | 0.601 | – | – | – | – | –
C[C@H](Cc1nncn1C)c1cccc(NC(=O)c2nc3c(C4CC4)cccc3[nH]2)c1 | 2.51 | 1.01 | 1.01 | >=0.201 | 0.051 | 1.01 | 1.01 | 1.01 | 0.801 | 0.601 | – | – | – | – | –
Cc1cc(C(=O)Nc2cccc([C@H](C)Cc3nncn3C)c2)nc2ccnn12 | 5 | 1.01 | 1.01 | >=0.201 | 0.101 | 1.31 | 1.01 | 1.01 | >=1.001 | 0.601 | – | – | – | – | –
C[C@H](Cc1nncn1C)c1cccc(NC(=O)c2cncc(C(F)(F)F)n2)c1 | 5 | 2.51 | 1.01 | 0.051 | 0.051 | >=1.76 | >=1.76 | >=1.76 | >=1.001 | 0.601 | – | – | – | – | –
